From US20080145858A1, “DETECTION AND IDENTIFICATION OF TOXICANTS BY MEASUREMENT OF GENE […]” (priority 2003, published 2008)
Marks after values point to notes of the source that are not given here.

Test system: Xenopus laevis neurulation stage embryos (stage 15)
Assay: Xenopus cDNA microarray, differential gene expression after PMA treatment during neurulation (Group II)
Assay type: in vivo
Details: for Ratio of Medians (Cy5/Cy3) Mean / Ratio of Medians (Cy5/Cy3) Second Spot / Cy3/Cy5 by Landmarks (0.25) / Cy3/Cy5 by all Data Points (0.469) / Normalized by Landmarks (0.25) / Normalized by all Data Points (0.469) / Ratio of Medians (Cy5/Cy3) First Spot: PMA, stage 15; for % increase of mRNA expression by Microarray analysis (NF by all data point): Stage 15
From the text: Specifically, the method and screen of the present invention function as follows. EST clones produced from Xenopus laevis unfertilized eggs were used in the present study with ˜1,200 EST clones from a 18,500 EST clone set selected for production of a Xenopus cDNA microarray. The Xenopus microarray was used to measure the effect of chemical treatment on Xenopus embryo gene regulation. The chemical treatment was a phorbol ester, PMA. Xenopus eggs were obtained from females induced for ovulation and fertilized in vitro. Control Xenopus laevis embryos were allowed to develop to stage 8 blastula or stage 15 neurula. Treated embryos were exposed to PMA during cleavage stage or during neurulation with end points of blastula (stage 8) or neurula (stage 15). Specifically, PMA 100 ng/ml was added to the incubation media during cleavage stages for evaluation in stage 8 embryo or PMA was added during neural induction for evaluation in stage 15 embryos. RNA extracted from the embryos was used to generate fluorescent cDNA probes for Xenopus microarray analyses to measure differential gene expression with and without the phorbol ester treatment. Analysis was performed using paired RNA samples to compare PMA-treated and untreated embryos: Group I measured the effects of PMA-treatment during the cleavage stage in stage 8 embryos and Group II measured the effects of PMA-treatment during neurulation in stage 15 embryos. Group III measured the change in gene expression between stage 8 and stage 15 embryos.
cDNA fragments were obtained by PCR replication of Xenopus laevis unfertilized egg cDNA inserts, purified, quantitated and loaded onto glass chips by robotics. In addition to the selected ˜1,200 genes, 64 lambda Q gene, an internal control cDNA (Genomic Solutions, Inc., Ann Arbor, Mich.) was loaded on the chip. The insert DNA from ˜1,200 clones were PCR amplified using forward and reverse primers (GF.200 primers, Research Genetics, Huntsville, Ala.). A second PCR was carried out using 1 μl of the primary PCR (20 μl) for template. Excess dNTPs, polymerase and other PCR artifacts were removed from the secondary PCR reactions using Millipore Multiscreen plates (Millipore Corporation, Bedford, Mass.) using the standard protocol. The purity of the PCR products was assessed by electrophoresis and documented using an Alphalmager 1000 Digital Imaging System (Alpha Innotech Corporation, San Leandro, Calif.). The DNA obtained by PCR was quantitated using PicoGreen (Molecular Probes, Eugene, Oreg.). The DNA was denatured and arrayed onto amino-silane coated microscope slides (CMT-GAPS coated slides, Corning, Corning, N.Y.) using a Flexys robotic workstation (Genomic Solutions Inc.). The ˜1,200 PCR products were arrayed in duplicate on each slide and cross-linked. Each gene chip contained duplicate cDNA samples.
Total RNA was prepared from embryos treated in three separate dishes per treatment group that were pooled. Total RNA was isolated from the frog embryos (1,200 embryos for each probe production) using TRIzol extraction (Gibco BRL, Grand Island, N.Y.) and Qiagen RNeasy kits (Qiagen, Valencia, Calif.). The ethanol precipitated RNA was resuspended in RNase-free water, quantitated with RiboGreen (Molecular Probes, Eugene, Oreg.). Total RNA was further purified using oligoTex mRNA maxi kit (Qiagen Co.) with the bound mRNA eluted with minimum volume of elution buffer and precipitated with ethanol. The recovery rate of mRNA by the ethanol precipitation method was ˜70%. Cy3- or Cy5-tagged probes were produced from an mRNA mixture (20 μl) of Xenopus mRNA (5 μg) and lambda Q gene mRNA (3.5 ng) reverse-transcribed with oligo(dT)18-22 primer and dNTPs and the reverse-transcribed cDNA was cross-linked with Cy3 or Cy5 as described in Clontech Atlas™ Glass Fluorescent Labeling kit manual (www.clontech.com). After hydrolysis of the RNA and purification of the probe (Centricon 50, Millipore, Bedford, Mass.), the cDNA in TE buffer was quantitated by absorbance at 260 nm. […]

CCCCCCCCCCCCCC(=O)O[C@@H]1[C@@H](C)[C@@]2(O)[C@@H](C=C(CO)C[C@]3(O)C(=O)C(C)=C[C@@H]23)[C@@H]2C(C)(C)[C@]12OC(C)=O [PMA, phorbol 12-myristate 12-acetate]
Ratio of Medians (Cy5/Cy3) Mean (PBX0139G06 mRNA): 1.06 ± 0.00 ^a
Ratio of Medians (Cy5/Cy3) Second Spot (PBX0139G06 mRNA): 1.06
Cy3/Cy5 by Landmarks (0.25) (PBX0140A10 mRNA): 4.20
Cy3/Cy5 by all Data Points (0.469) (PBX0140A10 mRNA): 2.24
Normalized by Landmarks (0.25) (PBX0140A10 mRNA): 0.238
Normalized by all Data Points (0.469) (PBX0140A10 mRNA): 0.446
Ratio of Medians (Cy5/Cy3) First Spot (PBX0140A10 mRNA): 0.89
Ratio of Medians (Cy5/Cy3) Mean (PBX0140A10 mRNA): 0.95 ± 0.06 ^a
Ratio of Medians (Cy5/Cy3) Second Spot (PBX0140A10 mRNA): 1.00
Cy3/Cy5 by Landmarks (0.25) (PBX0141B10 mRNA): 3.92
Cy3/Cy5 by all Data Points (0.469) (PBX0141B10 mRNA): 2.09
Normalized by Landmarks (0.25) (PBX0141B10 mRNA): 0.255
Normalized by all Data Points (0.469) (PBX0141B10 mRNA): 0.478
Ratio of Medians (Cy5/Cy3) First Spot (PBX0141B10 mRNA): 0.92
Ratio of Medians (Cy5/Cy3) Mean (PBX0141B10 mRNA): 1.02 ± 0.10 ^a
Ratio of Medians (Cy5/Cy3) Second Spot (PBX0141B10 mRNA): 1.12
Cy3/Cy5 by Landmarks (0.25) (PBX0141H05 mRNA): 10.8
Cy3/Cy5 by all Data Points (0.469) (PBX0141H05 mRNA): 5.76
Normalized by Landmarks (0.25) (PBX0141H05 mRNA): 0.093
Normalized by all Data Points (0.469) (PBX0141H05 mRNA): 0.174
Ratio of Medians (Cy5/Cy3) First Spot (PBX0141H05 mRNA): 0.73
Ratio of Medians (Cy5/Cy3) Mean (PBX0141H05 mRNA): 0.37 ± 0.36 ^a
Ratio of Medians (Cy5/Cy3) Second Spot (PBX0141H05 mRNA): 0.015
Normalized by Landmarks (0.25) (PBX 0141H12 mRNA): 1.40
Normalized by all Data Points (0.469) (PBX 0141H12 mRNA): 2.63
Ratio of Medians (Cy5/Cy3) First Spot (PBX 0141H12 mRNA): 7.46
Ratio of Medians (Cy5/Cy3) Mean (PBX 0141H12 mRNA): 5.61 ± 1.85 ^a
Ratio of Medians (Cy5/Cy3) Second Spot (PBX 0141H12 mRNA): 3.75
Normalized by Landmarks (0.25) (PBX 0143E06 mRNA): 1.60
Normalized by all Data Points (0.469) (PBX 0143E06 mRNA): 3.01
Ratio of Medians (Cy5/Cy3) First Spot (PBX 0143E06 mRNA): 6.04
Ratio of Medians (Cy5/Cy3) Mean (PBX 0143E06 mRNA): 6.41 ± 0.3 ^a
Ratio of Medians (Cy5/Cy3) Second Spot (PBX 0143E06 mRNA): 6.78
Normalized by Landmarks (0.25) (PBX 0143E11 mRNA): 1.41
Normalized by all Data Points (0.469) (PBX 0143E11 mRNA): 2.64
Ratio of Medians (Cy5/Cy3) First Spot (PBX 0143E11 mRNA): 4.62
Ratio of Medians (Cy5/Cy3) Mean (PBX 0143E11 mRNA): 5.64 ± 1.01 ^a
Ratio of Medians (Cy5/Cy3) Second Spot (PBX 0143E11 mRNA): 6.65
Cy3/Cy5 by Landmarks (0.25) (PBX0144A09 mRNA): 4.00
Cy3/Cy5 by all Data Points (0.469) (PBX0144A09 mRNA): 2.13
Normalized by Landmarks (0.25) (PBX0144A09 mRNA): 0.250
Normalized by all Data Points (0.469) (PBX0144A09 mRNA): 0.469
Ratio of Medians (Cy5/Cy3) First Spot (PBX0144A09 mRNA): 0.83
Ratio of Medians (Cy5/Cy3) Mean (PBX0144A09 mRNA): 1.00 ± 0.17 ^a
Ratio of Medians (Cy5/Cy3) Second Spot (PBX0144A09 mRNA): 1.16
Cy3/Cy5 by Landmarks (0.25) (PBX0145D04 mRNA): 4.35
Cy3/Cy5 by all Data Points (0.469) (PBX0145D04 mRNA): 2.32
Normalized by Landmarks (0.25) (PBX0145D04 mRNA): 0.230
Normalized by all Data Points (0.469) (PBX0145D04 mRNA): 0.431
Ratio of Medians (Cy5/Cy3) First Spot (PBX0145D04 mRNA): 0.9
Ratio of Medians (Cy5/Cy3) Mean (PBX0145D04 mRNA): 0.92 ± 0.02 ^a
Ratio of Medians (Cy5/Cy3) Second Spot (PBX0145D04 mRNA): 0.95
Cy3/Cy5 by Landmarks (0.25) (PBX0145D06 mRNA): 4.03
Cy3/Cy5 by all Data Points (0.469) (PBX0145D06 mRNA): 2.15
Normalized by Landmarks (0.25) (PBX0145D06 mRNA): 0.248
Normalized by all Data Points (0.469) (PBX0145D06 mRNA): 0.464
Ratio of Medians (Cy5/Cy3) First Spot (PBX0145D06 mRNA): 0.98
Ratio of Medians (Cy5/Cy3) Mean (PBX0145D06 mRNA): 0.99 ± 0.01 ^a
Ratio of Medians (Cy5/Cy3) Second Spot (PBX0145D06 mRNA): 1.00
% increase of mRNA expression by Microarray analysis (NF by all data point) (gene PBX0135A08): no change
% increase of mRNA expression by Microarray analysis (NF by all data point) (gene PBX013409): no change
